# Measured values reported in patent publication US5250561A, “Tetrahydroindazole, tetrahydrocyclopentapyrazole, and hexahydrocycloheptapyrazole compounds and their use as HMG-COA reductase inhibitors” (Ortho Pharmaceutical Corporation, priority 1992, dated 1993).
# Structures can show the parent of a compound that is named as a salt.
# How the values were obtained:
# Hep-G2 cells = assay: Cell Culture Cholesterol Biosynthesis Assay; type: cell-based; settings: Homo sapiens, racemic mixture
# Protocol: When the cells were 2/3 confluent, they were fed MEM containing Earles salts and delipidated serum protein (DLP) at 5 mg/mL and then incubated for a period of 24 h. DLP was prepared according to the procedure of Rothblat, et. al. ([…]., Howard, B. V. In Vitro (Rockville), 12, 1976, 554-557). The DLP medium was then removed and 3.3 mL of media containing the drug indicated was added. […] Fatty acids were extracted and digitonin precipitable sterols were recovered according the procedure of Kanduch and Saucier (Kandutch, A. A., Saucier, S. E. Journal of Biological Chemistry, 244, 1969, 2299-2305). To adjust for cell number per flask, the cholesterol synthesized was normalized to the fatty acids synthesized and results were expressed as percent inhibition vs. control.
# HMG-CoA reductase = assay: HMG-CoA Reductase Isolation And Assay (ammonium sulfate precipitated enzyme from rat liver); type: biochemical, male Wistar rats; settings: racemic mixture
# Protocol: Livers were harvested from male Wistar rats (250 g) following a five day feeding with powdered chow containing 2% cholestyramine. Ammonium sulfate precipitated HMG-CoA reductase was prepared from these livers according to the method of Heller, et. al. (Heller, R. A. Shrewsbury, M. A. Journal of Biological Chemistry, 251, 1976, 3815-3822). HMG-CoA reductase activity was measured using a modification of the procedure of Edwards, et. al. (Edwards, P. A., Lemongello, […]. Journal of Lipid Research, 20, 1979, 40-46). The effects of compounds on HMG-CoA reductase activity were determined by combining the compound with the enzyme and preincubating for 10 minutes prior to addition of the substrate […].
IC50 (HMG-CoA reductase; Table III),"IC50 (Hep-G2 cells; HepG2, Table III)",Compound,further results
–,–,"CCOC(=O)C[C@H](O)C[C@H](O)/C=C/c1c2c(nn1-c1ccc(F)cc1)C(Cc1ccccc1)CCC2 (mixture of isomers) [Compound 47, Ethyl (E)-(3RS,5SR)-7-[7-benzyl-2-(4-fluorophenyl)-4,5,6,7-tetrahydro-2H-indazol-3-yl]-3,5-dihydroxy-6-heptenoate]","IC50 (Hep-G2 cells; HepG2, Table IV): 290 nM; IC50 (HMG-CoA reductase; Table IV): 120 nM"
–,–,"O=C1C[C@H](O)C[C@@H](/C=C/c2c3c(nn2-c2ccc(F)cc2)C(Cc2ccccc2)CCC3)O1 (mixture of isomers) [Compound 79, (E)-(4RS,6SR)-6-[2-[7-Benzyl-2-(4-fluorophenyl)-4,5,6,7-tetrahydro-2H-indazol-3-yl]ethenyl]-4-hydroxy-3,4,5,6-tetrahydro-2H-pyran-2-one]","IC50 (Hep-G2 cells; HepG2, Table V): 260 nM; IC50 (HMG-CoA reductase; Table V): 750 nM"
–,–,O=C(O)C[C@H](O)C[C@H](O)/C=C/c1nn(-c2ccc(F)cc2)c2c1CCC2 (relative stereo) [Compound 2],IC50 (HMG-CoA reductase; Table II): 100000 nM
–,–,O=C(O)C[C@H](O)C[C@H](O)/C=C/c1nn(Cc2ccc(F)cc2)c2c1CCCCC2 (relative stereo) [Compound 9],IC50 (HMG-CoA reductase; Table II): 100000 nM
5100 nM,–,O=C(O)C[C@H](O)C[C@H](O)/C=C/c1c2c(nn1-c1ccc(F)cc1)CCC2 (relative stereo) [Compound 10],–
13000 nM,–,O=C(O)C[C@H](O)C[C@H](O)/C=C/c1c2c(nn1-c1ccc(F)cc1)-c1ccccc1CC2 (relative stereo) [Compound 22],–
2500 nM,–,O=C(O)C[C@H](O)C[C@H](O)/C=C/c1c2c(nn1-c1ccc(F)cc1)CCCC2 (relative stereo) [Compound 25],–
8800 nM,–,O=C(O)C[C@H](O)C[C@H](O)/C=C/c1c2c(nn1-c1ccc(Cl)cc1)CCCC2 (relative stereo) [Compound 26],–
2700 nM,–,C/C(=C\c1c2c(nn1-c1ccc(F)cc1)CCCC2)[C@@H](O)C[C@@H](O)CC(=O)O (relative stereo) [Compound 27],–
2100 nM,–,O=C(O)C[C@H](O)C[C@H](O)/C=C/c1c2c(nn1-c1ccc(F)cc1)-c1ccccc1CCC2 (relative stereo) [Compound 36],–
3800 nM,–,O=C(O)C[C@H](O)C[C@H](O)/C=C/c1c2c(nn1-c1ccc(F)cc1)CCCCC2 (relative stereo) [Compound 37],–
23000 nM,–,O=C(O)C[C@H](O)C[C@H](O)/C=C/c1c2c(nn1Cc1ccc(F)cc1)CCCCC2 (relative stereo) [Compound 38],–
–,–,O=C1C[C@H](O)C[C@@H](/C=C/c2c3c(nn2-c2ccc(F)cc2)CCCC3)O1 (relative stereo) [Compound 83],IC50 (HMG-CoA reductase; Table V): 9000 nM
2.7 nM,240 nM,"O=C(O)C[C@H](O)C[C@H](O)/C=C/c1c2c(nn1-c1ccc(F)cc1)C(Cc1ccc(-c3ccccc3)cc1)CCC2 (stereo partly drawn) [Compound 1, (E)-(3RS,5SR)-7-[7-[(1,1'-Biphenyl)-4-ylmethyl]-2-(4-fluorophenyl)-4,5,6,7-tetrahydro-2H-indazol-3-yl]-3,5-dihydroxy-6-heptenoic acid.Sodium salt.Dihydrate]",–
–,–,O=C(O)C[C@H](O)C[C@H](O)/C=C/c1nn(-c2ccc(F)cc2)c2c1CCCC2Cc1ccc(F)cc1 (stereo partly drawn) [Compound 3],"IC50 (Hep-G2 cells; HepG2, Table II): 27000 nM; IC50 (HMG-CoA reductase; Table II): 31000 nM"
–,–,O=C(O)C[C@H](O)C[C@H](O)/C=C/c1nn(-c2ccc(F)cc2)c2c1CCCC2C1CCCCC1 (stereo partly drawn) [Compound 4],IC50 (HMG-CoA reductase; Table II): 47000 nM
–,–,CCC1CCCc2c(/C=C/[C@@H](O)C[C@@H](O)CC(=O)O)nn(-c3ccc(F)cc3)c21 (stereo partly drawn) [Compound 5],IC50 (HMG-CoA reductase; Table II): 35000 nM
–,–,CC1CCCc2c(/C=C/[C@@H](O)C[C@@H](O)CC(=O)O)nn(-c3ccc(F)cc3)c21 (stereo partly drawn) [Compound 6],IC50 (HMG-CoA reductase; Table II): 100000 nM
–,–,O=C(O)C[C@H](O)C[C@H](O)/C=C/c1nn(-c2ccc(F)cc2)c2c1CCCC2CCc1ccccc1 (stereo partly drawn) [Compound 7],"IC50 (Hep-G2 cells; HepG2, Table II): > 10000 nM"
–,–,O=C(O)C[C@H](O)C[C@H](O)/C=C/c1nn(-c2ccc(F)cc2)c2c1CCCC2CC=Cc1ccccc1 (stereo partly drawn) [Compound 8],IC50 (HMG-CoA reductase; Table II): 3000 nM
26 nM,370 nM,O=C(O)C[C@H](O)C[C@H](O)/C=C/c1c2c(nn1-c1ccc(F)cc1)C(Cc1cccc3ccccc13)CCC2 (stereo partly drawn) [Compound 11],–
100 nM,1300 nM,O=C(O)C[C@H](O)C[C@H](O)/C=C/c1c2c(nn1-c1ccc(F)cc1)C(Cc1ccccc1Cl)CCC2 (stereo partly drawn) [Compound 12],–
5.6 nM,330 nM,O=C(O)C[C@H](O)C[C@H](O)/C=C/c1c2c(nn1-c1ccc(F)cc1)C(Cc1ccc3ccccc3c1)CCC2 (stereo partly drawn) [Compound 13],–
48 nM,1090 nM,COc1cccc(CC2CCCc3c2nn(-c2ccc(F)cc2)c3/C=C/[C@@H](O)C[C@@H](O)CC(=O)O)c1 (stereo partly drawn) [Compound 14],–
168 nM,3900 nM,COc1ccc(CC2CCCc3c2nn(-c2ccc(F)cc2)c3/C=C/[C@@H](O)C[C@@H](O)CC(=O)O)cc1OC (stereo partly drawn) [Compound 15],–

IC50 (HMG-CoA reductase; Table III),"IC50 (Hep-G2 cells; HepG2, Table III)",Compound,further results
58 nM,360 nM,O=C(O)C[C@H](O)C[C@H](O)/C=C/c1c2c(nn1-c1ccc(F)cc1)C(Cc1ccc(Cl)cc1)CCC2 (stereo partly drawn) [Compound 16],–
150 nM,700 nM,O=C(O)C[C@H](O)C[C@H](O)/C=C/c1c2c(nn1-c1ccc(F)cc1)C(Cc1ccc(F)cc1)CCC2 (stereo partly drawn) [Compound 17],–
14 nM,260 nM,CC(C)c1ccc(CC2CCCc3c2nn(-c2ccc(F)cc2)c3/C=C/[C@@H](O)C[C@@H](O)CC(=O)O)cc1 (stereo partly drawn) [Compound 18],–
19 nM,130 nM,Cc1ccc(CC2CCCc3c2nn(-c2ccc(F)cc2)c3/C=C/[C@@H](O)C[C@@H](O)CC(=O)O)cc1 (stereo partly drawn) [Compound 19],–
14 nM,460 nM,COc1ccc(CC2CCCc3c2nn(-c2ccc(F)cc2)c3/C=C/[C@@H](O)C[C@@H](O)CC(=O)O)cc1 (stereo partly drawn) [Compound 20],–
16 nM,135 nM,CC(C)(C)c1ccc(CC2CCCc3c2nn(-c2ccc(F)cc2)c3/C=C/[C@@H](O)C[C@@H](O)CC(=O)O)cc1 (stereo partly drawn) [Compound 21],–
7700 nM,–,O=C(O)C[C@H](O)C[C@H](O)/C=C/c1c2c(nn1-c1ccc(F)cc1)C(C1CCCCC1)CCC2 (stereo partly drawn) [Compound 23],–
1000 nM,–,CCC1CCCc2c1nn(-c1ccc(F)cc1)c2/C=C/[C@@H](O)C[C@@H](O)CC(=O)O (stereo partly drawn) [Compound 24],–
1100 nM,–,CC1CCCc2c1nn(-c1ccc(F)cc1)c2/C=C/[C@@H](O)C[C@@H](O)CC(=O)O (stereo partly drawn) [Compound 28],–
1300 nM,–,CCCC1CCCc2c1nn(-c1ccc(F)cc1)c2/C=C/[C@@H](O)C[C@@H](O)CC(=O)O (stereo partly drawn) [Compound 29],–
3100 nM,–,O=C(O)C[C@H](O)C[C@H](O)/C=C/c1c2c(nn1-c1ccc(F)cc1)C(c1ccccc1)CCC2 (stereo partly drawn) [Compound 30],–
85 nM,220 nM,O=C(O)C[C@H](O)C[C@H](O)/C=C/c1c2c(nn1-c1ccc(F)cc1)C(Cc1ccccc1)CCC2 (stereo partly drawn) [Compound 31],–
334 nM,1750 nM,O=C(O)C[C@H](O)C[C@H](O)/C=C/c1c2c(nn1-c1ccc(F)cc1)C(CCc1ccccc1)CCC2 (stereo partly drawn) [Compound 32],–
160 nM,1100 nM,O=C(O)C[C@H](O)C[C@H](O)/C=C/c1c2c(nn1-c1ccc(F)cc1)C(CCCc1ccccc1)CCC2 (stereo partly drawn) [Compound 33],–
32 nM,1300 nM,O=C(O)C[C@H](O)C[C@H](O)/C=C/c1c2c(nn1-c1ccc(F)cc1)C(CC=Cc1ccccc1)CCC2 (stereo partly drawn) [Compound 34],–
1000 nM,–,CCC(C)C1CCCc2c1nn(-c1ccc(F)cc1)c2/C=C/[C@@H](O)C[C@@H](O)CC(=O)O (stereo partly drawn) [Compound 35],–
–,–,COC(=O)C[C@H](O)C[C@H](O)/C=C/c1c2c(nn1-c1ccc(F)cc1)C(Cc1ccc3ccccc3c1)CCC2 (stereo partly drawn) [Compound 42],"IC50 (Hep-G2 cells; HepG2, Table I): 365 nM"
–,–,COC(=O)C[C@H](O)C[C@H](O)/C=C/c1c2c(nn1-c1ccc(F)cc1)C(Cc1ccc(C(C)C)cc1)CCC2 (stereo partly drawn) [Compound 43],"IC50 (Hep-G2 cells; HepG2, Table I): 120 nM"
–,–,CCOC(=O)C[C@H](O)C[C@H](O)/C=C/c1c2c(nn1-c1ccc(F)cc1)C(Cc1cccc(OC)c1)CCC2 (stereo partly drawn) [Compound 58],"IC50 (Hep-G2 cells; HepG2, Table IV): 800 nM; IC50 (HMG-CoA reductase; Table IV): 210 nM"
–,–,CCOC(=O)C[C@H](O)C[C@H](O)/C=C/c1c2c(nn1-c1ccc(F)cc1)C(Cc1ccc(Cl)cc1)CCC2 (stereo partly drawn) [Compound 60],"IC50 (Hep-G2 cells; HepG2, Table IV): 460 nM"
–,–,CCOC(=O)C[C@H](O)C[C@H](O)/C=C/c1c2c(nn1-c1ccc(F)cc1)C(Cc1ccc(C)cc1)CCC2 (stereo partly drawn) [Compound 62],"IC50 (Hep-G2 cells; HepG2, Table IV): 200 nM; IC50 (HMG-CoA reductase; Table IV): 70 nM"
–,–,CCOC(=O)C[C@H](O)C[C@H](O)/C=C/c1c2c(nn1-c1ccc(F)cc1)C(Cc1ccc(C(C)(C)C)cc1)CCC2 (stereo partly drawn) [Compound 64],IC50 (HMG-CoA reductase; Table IV): 30 nM
–,–,CCC(CC)CC1CCCc2c1nn(-c1ccc(F)cc1)c2/C=C/[C@@H]1C[C@@H](O)CC(=O)O1 (stereo partly drawn) [Compound 80],IC50 (HMG-CoA reductase; Table V): 29000 nM
–,–,O=C1C[C@H](O)C[C@@H](/C=C/c2c3c(nn2-c2ccc(F)cc2)C(Cc2ccc4ccccc4c2)CCC3)O1 (stereo partly drawn) [Compound 81],"IC50 (Hep-G2 cells; HepG2, Table V): 390 nM"
–,–,CC(C)(C)c1ccc(CC2CCCc3c2nn(-c2ccc(F)cc2)c3/C=C/[C@@H]2C[C@@H](O)CC(=O)O2)cc1 (stereo partly drawn) [Compound 82],"IC50 (Hep-G2 cells; HepG2, Table V): 230 nM; IC50 (HMG-CoA reductase; Table V): 70 nM"
